Source: patent publication US20240285785A1, “TARGETING SORTILIN” (priority 2022, published 2024)
Where a SMILES comes first, the peptide text is derived from it. [ ]: non-standard residue; d: D form. The star is where a group is joined. Dolaproine = CO[C@@H]([C@@H]1CCCN1)[C@@H](C)C(=O)O; Dil = CC[C@H](C)[C@H](NC)[C@@H](CC(=O)O)OC; X1 = C[C@@H](N*)[C@@H](O)c1ccccc1; NMeV = CN[C@H](C(=O)O)C(C)C

tested on: not listed separately; assay: Murine serum stability assay; assay type: in vitro ADME, mouse (CD-1); conditions: male, CD-1, mouse, mouse serum, male CD-1 mouse serum, 37° C.; read-out: Murine serum stability assay, T1/2
Description: Serum was drawn from male CD-1 mice by Pharmidex. Lyophilized peptides were solubilized in DMSO and then further diluted into male mouse (CD-1) serum at 37° C. in duplicates. The reaction was incubated at 37° C. and samples extracted at 6 time points: 0, 0.16, 0.5, 1, 3, and 6 hrs. Acetonitrile (ACN) with internal standard (tolbutamide) was added to stop the incubation. Samples were centrifuged, and the supernatant was analyzed by HPLC-MS/MS for the parent compound.

half-life [min] | SMILES
46.1 | CCCC[C@@H]1NC(=O)[C@@H](NC(=O)[C@H](CCC(N)=O)NC(=O)[C@H](C)NC(C)=O)CSSC[C@@H](C(=O)N[C@@H](CCCNC(=N)N)C(=O)N[C@@H](CCC(N)=O)C(=O)N[C@H](C(=O)N[C@@H](CC(C)(C)C)C(=O)O)C(C)(C)C)NC(=O)[C@H](C)NC(=O)[C@H](CCCNC(=N)N)NC(=O)[C@H](CC(N)=O)NC(=O)[C@H](CCCNC(=N)N)NC(=O)CNC1=O [Arb_cyclic_C5]
58.8 | CC(=O)N[C@@H](Cc1c[nH]cn1)C(=O)N[C@@H](CC(N)=O)C(=O)N[C@@H](Cc1ccccc1)C(=O)N[C@@H](Cc1ccc(O)cc1)C(=O)N[C@H]1CSSC[C@@H](C(=O)N[C@@H](CCC(N)=O)C(=O)N[C@@H](CCCNC(=N)N)C(=O)N[C@@H](CCC(N)=O)C(=O)N[C@H](C(=O)N[C@@H](CC(C)(C)C)C(=O)O)C(C)(C)C)NC(=O)[C@H](Cc2c[nH]cn2)NC(=O)[C@H](CCCCN)NC(=O)[C@H](CCCNC(=N)N)NC1=O [Arb_cyclic_C22]
13.5 | CCCC[C@H](NC(=O)[C@@H]1CSSC[C@H](NC(=O)[C@H](Cc2c[nH]cn2)NC(=O)[C@H](Cc2ccccc2)NC(=O)[C@H](CC(N)=O)NC(=O)[C@H](CCCNC(=N)N)NC(C)=O)C(=O)N[C@@H](CCCNC(=N)N)C(=O)N[C@@H](C)C(=O)N[C@@H](CCC(N)=O)C(=O)N1)C(=O)N[C@@H](CCCNC(=N)N)C(=O)N[C@@H](CCC(N)=O)C(=O)N[C@H](C(=O)N[C@@H](CC(C)(C)C)C(=O)O)C(C)(C)C [Arb_cyclic_D21]
173 | CC(=O)N[C@@H](CCC(=O)O)C(=O)N[C@@H](Cc1c[nH]c2ccccc12)C(=O)N[C@H]1CSSC[C@@H](C(=O)N[C@@H](CCCNC(=N)N)C(=O)N[C@@H](CCC(N)=O)C(=O)N[C@H](C(=O)N[C@@H](CC(C)(C)C)C(=O)O)C(C)(C)C)NC(=O)[C@H]([C@@H](C)O)NC(=O)[C@@H]2CCCN2C(=O)[C@H](Cc2c[nH]cn2)NC(=O)[C@H](CC(N)=O)NC(=O)[C@H](Cc2c[nH]cn2)NC(=O)[C@H](CC(C)C)NC(=O)CNC1=O [Arb_cyclic_F3]
20.8 | CC(=O)N[C@@H](CCCNC(=N)N)C(=O)N[C@@H](CC(=O)O)C(=O)N[C@H]1CSSC[C@@H](C(=O)N[C@@H](CCCNC(=N)N)C(=O)N[C@@H](CCC(N)=O)C(=O)N[C@H](C(=O)N[C@@H](CC(C)(C)C)C(=O)O)C(C)(C)C)NC(=O)[C@@H]2CCCN2C(=O)[C@@H]2CCCN2C(=O)[C@H](C)NC(=O)[C@H](CCCNC(=N)N)NC(=O)[C@H](CC(C)C)NC(=O)[C@H](CO)NC(=O)[C@H](C)NC1=O [Arb_cyclic_G2]
38.5 | CC(=O)N[C@@H](CCCNC(=N)N)C(=O)N[C@@H](CC(=O)O)C(=O)N[C@H]1CSSC[C@@H](C(=O)N[C@@H](CCCNC(=N)N)C(=O)N[C@@H](CCC(N)=O)C(=O)N[C@H](C(=O)N[C@@H](CC(C)(C)C)C(=O)O)C(C)(C)C)NC(=O)[C@H](C(C)C)NC(=O)[C@H](CCCCN)NC(=O)[C@H](C)NC(=O)[C@H](CCCNC(=N)N)NC(=O)[C@H](CC(C)C)NC(=O)[C@H](CO)NC(=O)[C@@H]2CCCN2C1=O [Arb_cyclic_G4]
95.2 | CCCC[C@@H]1NC(=O)[C@H](CCCNC(=N)N)NC(=O)[C@H](CC(C)C)NC(=O)[C@H](CO)NC(=O)[C@H](C(C)C)NC(=O)[C@@H](NC(=O)[C@H](CC(=O)O)NC(=O)[C@H](CCCNC(=N)N)NC(C)=O)CSSC[C@@H](C(=O)N[C@@H](CCCNC(=N)N)C(=O)N[C@@H](CCC(N)=O)C(=O)N[C@H](C(=O)N[C@@H](CC(C)(C)C)C(=O)O)C(C)(C)C)NC(=O)[C@H](C(C)C)NC(=O)[C@H](Cc2c[nH]cn2)NC1=O [Arb_cyclic_G5, RDCVSLR(Nle)HVCRQ(B13)(F02)]
9.26 | CC[C@H](C)[C@@H]1NC(=O)[C@@H](NC(=O)CNC(=O)[C@H](CCCNC(=N)N)NC(C)=O)CSSC[C@@H](C(=O)N[C@@H](CCCNC(=N)N)C(=O)N[C@@H](CCC(N)=O)C(=O)N[C@H](C(=O)N[C@@H](CC(C)(C)C)C(=O)O)C(C)(C)C)NC(=O)[C@H](C)NC(=O)[C@H](CC(=O)O)NC(=O)[C@H](CCC(N)=O)NC(=O)[C@H](CCCNC(=N)N)NC(=O)[C@H](CCCNC(=N)N)NC(=O)[C@@H]2CCCN2C1=O [Arb_cyclic_G7]
112 | CCCC[C@H](NC(=O)[C@H](CCCNC(=N)N)NC(C)=O)C(=O)N[C@H]1CSSC[C@@H](C(=O)N[C@@H](CCCNC(=N)N)C(=O)N[C@@H](CCC(N)=O)C(=O)N[C@H](C(=O)N[C@@H](CC(C)(C)C)C(=O)O)C(C)(C)C)NC(=O)[C@H](C)NC(=O)[C@@H]2CCCN2C(=O)[C@H](CO)NC(=O)[C@H](CCCNC(=N)N)NC(=O)[C@H]([C@@H](C)CC)NC(=O)[C@@H]2CCCN2C(=O)CNC1=O [Arb_cyclic_G10]
50.9 | CCCC[C@@H]1NC(=O)[C@H](CCCNC(=N)N)NC(=O)[C@H](Cc2c[nH]cn2)NC(=O)[C@H]([C@@H](C)O)NC(=O)[C@H]([C@@H](C)O)NC(=O)[C@@H](NC(=O)[C@H](CO)NC(=O)[C@H](CCCNC(=N)N)NC(C)=O)CSSC[C@@H](C(=O)N[C@@H](CCCNC(=N)N)C(=O)N[C@@H](CCC(N)=O)C(=O)N[C@H](C(=O)N[C@@H](CC(C)(C)C)C(=O)O)C(C)(C)C)NC(=O)[C@H]([C@@H](C)O)NC(=O)[C@H](C)NC1=O [Arb_cyclic_G14, RSCTTHR(Nle)ATCRQ(B13)(F02)]
49.2 | CCCC[C@@H]1NC(=O)[C@H](CCCNC(=N)N)NC(=O)[C@H](CCC(N)=O)NC(=O)[C@H](CC(N)=O)NC(=O)[C@H](CCC(=O)O)NC(=O)[C@@H](NC(=O)[C@H](Cc2c[nH]c3ccccc23)NC(=O)[C@H](CCCNC(=N)N)NC(C)=O)CSSC[C@@H](C(=O)N[C@@H](CCCNC(=N)N)C(=O)N[C@@H](CCC(N)=O)C(=O)N[C@H](C(=O)N[C@@H](CC(C)(C)C)C(=O)O)C(C)(C)C)NC(=O)[C@H](C(C)C)NC(=O)[C@H]([C@@H](C)O)NC1=O [Arb_cyclic_G22, RWCENQR(Nle)TVCRQ(B13)(F02)]
38.1 | CCCC[C@@H]1NC(=O)[C@H](CCCNC(=N)N)NC(=O)[C@H](CCCNC(=N)N)NC(=O)[C@H](CC(N)=O)NC(=O)[C@H](CCC(=O)O)NC(=O)[C@@H](NC(=O)[C@H](Cc2c[nH]c3ccccc23)NC(=O)[C@H](CCCNC(=N)N)NC(C)=O)CSSC[C@@H](C(=O)N[C@@H](CCCNC(=N)N)C(=O)N[C@@H](CCC(N)=O)C(=O)N[C@H](C(=O)N[C@@H](CC(C)(C)C)C(=O)O)C(C)(C)C)NC(=O)[C@H]([C@@H](C)O)NC(=O)[C@H](Cc2ccccc2)NC1=O [Arb_cyclic_G23, RWCENRR(Nle)FTCRQ(B13)(F02)]

same assay, conditions: male, CD-1, mouse, serum, 37° C., read-out: Murine serum stability assay, T1/2

half-life [min] | SMILES
80.7 | CCCC[C@@H]1NC(=O)[C@H](CCCCN)NC(=O)[C@H](CCCNC(=N)N)NC(=O)[C@@H](NC(=O)[C@H](Cc2ccccc2)NC(=O)[C@@H](NC(=O)[C@H](CC(N)=O)NC(=O)[C@H](CCCNC(=N)N)NC(C)=O)[C@@H](C)CC)CSSC[C@@H](C(=O)N[C@@H](CCC(=O)O)C(=O)N[C@@H](CCCNC(=N)N)C(=O)N[C@@H](CCC(N)=O)C(=O)N[C@H](C(=O)N[C@@H](CC(C)(C)C)C(=O)O)C(C)(C)C)NC1=O [Arb_cyclic_D24, RNIFCRK(Nle)CERQ(B13)(F02)]
19.3 | CC(=O)N[C@@H](CCCNC(=N)N)C(=O)N[C@H](C(=O)N[C@H]1CSSC[C@@H](C(=O)N[C@@H](CCCNC(=N)N)C(=O)N[C@@H](CCC(N)=O)C(=O)N[C@H](C(=O)N[C@@H](CC(C)(C)C)C(=O)O)C(C)(C)C)NC(=O)[C@H](C)NC(=O)[C@@H]2CCCN2C(=O)[C@H](CC(N)=O)NC(=O)[C@H](CCCNC(=N)N)NC(=O)[C@H](CC(C)C)NC(=O)[C@H](Cc2c[nH]cn2)NC(=O)[C@H](CC(N)=O)NC1=O)[C@@H](C)O [Arb_cyclic_G15]
11.2 | CCCC[C@@H]1NC(=O)[C@H](CCCNC(=N)N)NC(=O)[C@H](Cc2c[nH]cn2)NC(=O)[C@H](CC(N)=O)NC(=O)[C@H](C)NC(=O)[C@@H](NC(=O)[C@@H](NC(=O)[C@H](CCCNC(=N)N)NC(C)=O)C(C)C)CSSC[C@@H](C(=O)N[C@@H](CCCNC(=N)N)C(=O)N[C@@H](CCC(N)=O)C(=O)N[C@H](C(=O)N[C@@H](CC(C)(C)C)C(=O)O)C(C)(C)C)NC(=O)[C@H]([C@@H](C)O)NC(=O)[C@H](CC(N)=O)NC1=O [Arb_cyclic_G16, RVCANHR(Nle)NTCRQ(B13)(F02)]

tested on: MDA-MB-231 tumor cells; assay: MDA-MB-231 murine xenograft efficacy model; assay type: in vivo, BALB/c Nude mice; conditions: Example 6; PDC 3, 1, 0.3 mg/kg; free MMAE at equivalency to 3 mg/kg PDC
Description: Murine xenograft experiments were conducted at WuXi AppTec and/or Charles River Laboratories and the care and use of animals was conducted in accordance with the regulations of the Association for Assessment and Accreditation of Laboratory Animal Care (AAALAC). MDA-MB-231 tumor cells (ATCC, Manassas, VA, cat #HTB-26) were grown and maintained in L15 medium supplemented with 10% heat inactivated fetal bovine serum, 1% Antibiotic-Antimycotic, and L-glutamine (2 mM) at 37° C. in an atmosphere in 5% CO2, 95% air. BALB/c Nude, female, 6-8 weeks, weighing approximately 18-22 g were purchased from Vital River Laboratory Animal Technology Co., LTD. Mice were inoculated subcutaneously at the right flank with MDA-MB-231 tumor cells (e.g., triple negative breast cancer cells) (10×10^6) in 0.2 mL of PBS with Matrigel (1:1) for tumor development. Animals were randomized and treatment was started when the average tumor volume reached approximately 150-200 mm^3 for the efficacy study. Dosing volume was adjusted based on body weight and was administered at 10 ml/Kg. […] Free MMAE payload was also tested, and similarly dissolved in 25 mM Histidine 10% sucrose pH 7 and one or more of the following doses, 0.6, 0.06 mg/kg, were administered to the mice i.v. at a QW×4 schedule. Tumor sizes were measured twice weekly in two dimensions using a caliper, and the volume in mm^3 calculated using the formula: V=0.5 a×b^2, where a and b are the long and short diameters of the tumor, respectively. TGI was calculated for each group using the formula: TGI (%)=[1−(Ti−T0)/(Vi−V0)]×100; where Ti is the average tumor volume of a treatment group on a given day, T0 is the average tumor volume of the treatment group on the first day of treatment, Vi is the average tumor volume of the vehicle control group on the same day with Ti, and V0 is the average tumor volume of the vehicle group on the first day of treatment.

SMILES | body weight variation
CC[C@H](C)[C@@H]([C@@H](CC(=O)N1CCC[C@H]1[C@H](OC)[C@@H](C)C(=O)N[C@H](C)[C@@H](O)c1ccccc1)OC)N(C)C(=O)[C@@H](NC(=O)[C@@H](NC)C(C)C)C(C)C [MMAE, Monomethyl auristatin E, reference compound] (H-[NMeV]V[Dil][Dolaproine]-X1) | body weight fluctuations corresponding to treatment times

same assay, conditions: Example 8; PDC 3 mg/kg, free MMAE 0.6 mg/kg, i.v. QW×4

SMILES | body weight loss
CC[C@H](C)[C@@H]([C@@H](CC(=O)N1CCC[C@H]1[C@H](OC)[C@@H](C)C(=O)N[C@H](C)[C@@H](O)c1ccccc1)OC)N(C)C(=O)[C@@H](NC(=O)[C@@H](NC)C(C)C)C(C)C [MMAE, Monomethyl auristatin E, reference compound] (H-[NMeV]V[Dil][Dolaproine]-X1) | body weight fluctuations corresponding to treatment times
